Experimental data: ChEMBL document CHEMBL1800064, “Biaryl ethers as potent allosteric inhibitors of reverse transcriptase and its key mutant viruses: aryl substituted pyrazole as a surrogate for the pyrazolopyridine motif” (Bioorg Med Chem Lett, 2010)

Experiments:
[1] = test system: Human immunodeficiency virus 1; assay: Antiviral activity against HIV1 isolate NL4-3 harboring wild type reverse transcriptase assessed as inhibition of viral replication by phenoscreen assay in presence of 40% normal human serum; format: functional, organism-based; conditions: Human immunodeficiency virus 1, isolate NL4-3
[2] = test system: Human immunodeficiency virus 1; assay: Ratio IC50 for HIV1 isolate NL4-3 harboring reverse transcriptase G190S mutant to IC50 for HIV1 isolate NL4-3 harboring wild type reverse transcriptase by phenoscreen assay in presence of 40% normal human serum; format: functional
[3] = test system: Human immunodeficiency virus 1; assay: Antiviral activity against HIV1 isolate NL4-3 harboring reverse transcriptase K103N/P225H double mutant assessed as inhibition of viral replication by phenoscreen assay in presence of 40% normal human serum; format: functional, organism-based; conditions: Human immunodeficiency virus 1, isolate NL4-3
[4] = test system: Human immunodeficiency virus 1; assay: Ratio IC50 for HIV1 isolate NL4-3 harboring reverse transcriptase K103N/Y181C/G190A mutant to IC50 for HIV1 isolate NL4-3 harboring wild type reverse transcriptase by phenoscreen assay in presence of 40% normal human serum; format: functional
[5] = test system: Human immunodeficiency virus 1; assay: Antiviral activity against HIV1 R8 harboring reverse transcriptase K103N mutant infected in human MT4 cells assessed as inhibition of viral spread in presence of 10% fetal bovine serum; format: functional; conditions: Human immunodeficiency virus 1, R8, MT4; read-out: CIC95
[6] = test system: Human immunodeficiency virus 1; assay: Ratio IC50 for HIV1 isolate NL4-3 harboring reverse transcriptase K103N mutant to IC50 for HIV1 isolate NL4-3 harboring wild type reverse transcriptase by phenoscreen assay in presence of 40% normal human serum; format: functional
[7] = target: Human immunodeficiency virus type 1 reverse transcriptase (Human immunodeficiency virus 1, UniProt Q72547); assay: Inhibition of wild type HIV1 reverse transcriptase by SPA assay
[8] = test system: Human immunodeficiency virus 1; assay: Antiviral activity against HIV1 isolate NL4-3 harboring reverse transcriptase K103N/Y181C double mutant assessed as inhibition of viral replication by phenoscreen assay in presence of 40% normal human serum; format: functional, organism-based; conditions: Human immunodeficiency virus 1, isolate NL4-3
[9] = test system: Human immunodeficiency virus 1; assay: Antiviral activity against HIV1 isolate NL4-3 harboring reverse transcriptase K103N/Y181C/G190A mutant assessed as inhibition of viral replication by phenoscreen assay in presence of 40% normal human serum; format: functional, organism-based; conditions: Human immunodeficiency virus 1, isolate NL4-3
[10] = test system: Human immunodeficiency virus 1; assay: Antiviral activity against HIV1 isolate NL4-3 harboring reverse transcriptase Y181C mutant assessed as inhibition of viral replication by phenoscreen assay in presence of 40% normal human serum; format: functional, organism-based; conditions: Human immunodeficiency virus 1, isolate NL4-3
[11] = test system: Human immunodeficiency virus 1; assay: Antiviral activity against HIV1 isolate NL4-3 harboring reverse transcriptase V106A/G190A/F227L mutant assessed as inhibition of viral replication by phenoscreen assay in presence of 40% normal human serum; format: functional, organism-based; conditions: Human immunodeficiency virus 1, isolate NL4-3
[12] = test system: Human immunodeficiency virus 1; assay: Ratio IC50 for HIV1 isolate NL4-3 harboring reverse transcriptase K103N/Y181C double mutant to IC50 for HIV1 isolate NL4-3 harboring wild type reverse transcriptase by phenoscreen assay in presence of 40% normal human serum; format: functional
[13] = test system: Human immunodeficiency virus 1; assay: Antiviral activity against HIV1 isolate NL4-3 harboring reverse transcriptase K103N/G190A double mutant assessed as inhibition of viral replication by phenoscreen assay in presence of 40% normal human serum; format: functional, organism-based; conditions: Human immunodeficiency virus 1, isolate NL4-3
[14] = target: Human immunodeficiency virus type 1 reverse transcriptase (Human immunodeficiency virus 1, UniProt Q72547, K103N); assay: Inhibition of HIV1 reverse transcriptase K103N mutant by SPA assay
[15] = test system: Human immunodeficiency virus 1; assay: Ratio IC50 for HIV1 isolate NL4-3 harboring reverse transcriptase Y181C/G190A double mutant to IC50 for HIV1 isolate NL4-3 harboring wild type reverse transcriptase by phenoscreen assay in presence of 40% normal human serum; format: functional
[16] = test system: Human immunodeficiency virus 1; assay: Antiviral activity against HIV1 R8 harboring reverse transcriptase Y181C mutant infected in human MT4 cells assessed as inhibition of viral spread in presence of 10% fetal bovine serum; format: functional; conditions: Human immunodeficiency virus 1, R8, MT4; read-out: CIC95
[17] = target: Human immunodeficiency virus type 1 reverse transcriptase (Human immunodeficiency virus 1, UniProt Q72547, Y181C); assay: Inhibition of HIV1 reverse transcriptase Y181C mutant by SPA assay
[18] = test system: Human immunodeficiency virus 1; assay: Ratio IC50 for HIV1 isolate NL4-3 harboring reverse transcriptase K101E/Y181C/G190A mutant to IC50 for HIV1 isolate NL4-3 harboring wild type reverse transcriptase by phenoscreen assay in presence of 40% normal human serum; format: functional
[19] = test system: Human immunodeficiency virus 1; assay: Ratio IC50 for HIV1 isolate NL4-3 harboring reverse transcriptase K103N/P225H double mutant to IC50 for HIV1 isolate NL4-3 harboring wild type reverse transcriptase by phenoscreen assay in presence of 40% normal human serum; format: functional
[20] = test system: Human immunodeficiency virus 1; assay: Ratio IC50 for HIV1 isolate NL4-3 harboring reverse transcriptase L100I mutant to IC50 for HIV1 isolate NL4-3 harboring wild type reverse transcriptase by phenoscreen assay in presence of 40% normal human serum; format: functional
[21] = test system: Human immunodeficiency virus 1; assay: Ratio IC50 for HIV1 isolate NL4-3 harboring reverse transcriptase V106A/G190A/F227L mutant to IC50 for HIV1 isolate NL4-3 harboring wild type reverse transcriptase by phenoscreen assay in presence of 40% normal human serum; format: functional
[22] = test system: Human immunodeficiency virus 1; assay: Ratio IC50 for HIV1 isolate NL4-3 harboring reverse transcriptase Y188L mutant to IC50 for HIV1 isolate NL4-3 harboring wild type reverse transcriptase by phenoscreen assay in presence of 40% normal human serum; format: functional
[23] = test system: Human immunodeficiency virus 1; assay: Antiviral activity against HIV1 isolate NL4-3 harboring reverse transcriptase K101E/G190A double mutant assessed as inhibition of viral replication by phenoscreen assay in presence of 40% normal human serum; format: functional, organism-based; conditions: Human immunodeficiency virus 1, isolate NL4-3
[24] = test system: Human immunodeficiency virus 1; assay: Ratio IC50 for HIV1 isolate NL4-3 harboring reverse transcriptase G190A mutant to IC50 for HIV1 isolate NL4-3 harboring wild type reverse transcriptase by phenoscreen assay in presence of 40% normal human serum; format: functional
[25] = test system: Human immunodeficiency virus 1; assay: Antiviral activity against HIV1 isolate NL4-3 harboring reverse transcriptase K103N mutant assessed as inhibition of viral replication by phenoscreen assay in presence of 40% normal human serum; format: functional, organism-based; conditions: Human immunodeficiency virus 1, isolate NL4-3
[26] = test system: Human immunodeficiency virus 1; assay: Ratio IC50 for HIV1 isolate NL4-3 harboring reverse transcriptase K103N/V179E double mutant to IC50 for HIV1 isolate NL4-3 harboring wild type reverse transcriptase by phenoscreen assay in presence of 40% normal human serum; format: functional
[27] = test system: Human immunodeficiency virus 1; assay: Antiviral activity against HIV1 isolate NL4-3 harboring reverse transcriptase Y181C/G190A double mutant assessed as inhibition of viral replication by phenoscreen assay in presence of 40% normal human serum; format: functional, organism-based; conditions: Human immunodeficiency virus 1, isolate NL4-3
[28] = test system: Human immunodeficiency virus 1; assay: Antiviral activity against HIV1 isolate NL4-3 harboring reverse transcriptase K103N/V179E double mutant assessed as inhibition of viral replication by phenoscreen assay in presence of 40% normal human serum; format: functional, organism-based; conditions: Human immunodeficiency virus 1, isolate NL4-3
[29] = test system: Human immunodeficiency virus 1; assay: Ratio IC50 for HIV1 isolate NL4-3 harboring reverse transcriptase K101E/G190A double mutant to IC50 for HIV1 isolate NL4-3 harboring wild type reverse transcriptase by phenoscreen assay in presence of 40% normal human serum; format: functional
[30] = test system: Human immunodeficiency virus 1; assay: Antiviral activity against HIV1 isolate NL4-3 harboring reverse transcriptase L100I mutant assessed as inhibition of viral replication by phenoscreen assay in presence of 40% normal human serum; format: functional, organism-based; conditions: Human immunodeficiency virus 1, isolate NL4-3
[31] = test system: Human immunodeficiency virus 1; assay: Ratio IC50 for HIV1 isolate NL4-3 harboring reverse transcriptase K103N/G190A double mutant to IC50 for wild type HIV1 isolate NL4-3 harboring reverse transcriptase by phenoscreen assay in presence of 40% normal human serum; format: functional
[32] = test system: Human immunodeficiency virus 1; assay: Antiviral activity against HIV1 R8 harboring wild type reverse transcriptase infected in human MT4 cells assessed as inhibition of viral spread in presence of 10% fetal bovine serum; format: functional; conditions: Human immunodeficiency virus 1, R8, MT4; read-out: CIC95
[33] = test system: Human immunodeficiency virus 1; assay: Antiviral activity against HIV1 isolate NL4-3 harboring reverse transcriptase Y188L mutant assessed as inhibition of viral replication by phenoscreen assay in presence of 40% normal human serum; format: functional, organism-based; conditions: Human immunodeficiency virus 1, isolate NL4-3
[34] = test system: Human immunodeficiency virus 1; assay: Ratio IC50 for HIV1 isolate NL4-3 harboring reverse transcriptase Y181C mutant to IC50 for HIV1 isolate NL4-3 harboring wild type reverse transcriptase by phenoscreen assay in presence of 40% normal human serum; format: functional
[35] = test system: Human immunodeficiency virus 1; assay: Antiviral activity against HIV1 R8 harboring reverse transcriptase infected in human MT4 cells assessed as inhibition of viral spread in presence of 50% normal human serum; format: functional; conditions: Human immunodeficiency virus 1, R8, MT4; read-out: CIC95
[36] = test system: Human immunodeficiency virus 1; assay: Antiviral activity against HIV1 isolate NL4-3 harboring reverse transcriptase G190A mutant assessed as inhibition of viral replication by phenoscreen assay in presence of 40% normal human serum; format: functional, organism-based; conditions: Human immunodeficiency virus 1, isolate NL4-3
[37] = test system: Human immunodeficiency virus 1; assay: Antiviral activity against HIV1 isolate NL4-3 harboring reverse transcriptase K101E/Y181C/G190A mutant assessed as inhibition of viral replication by phenoscreen assay in presence of 40% normal human serum; format: functional, organism-based; conditions: Human immunodeficiency virus 1, isolate NL4-3
[38] = test system: Human immunodeficiency virus 1; assay: Antiviral activity against HIV1 isolate NL4-3 harboring reverse transcriptase G190S mutant assessed as inhibition of viral replication by phenoscreen assay in presence of 40% normal human serum; format: functional, organism-based; conditions: Human immunodeficiency virus 1, isolate NL4-3

For N#Cc1cc(Cl)cc(Oc2cc(OCc3cc(-c4ccncc4)[nH]n3)ccc2Cl)c1, the IC50 [1] was 4.5 nM, the “Ratio IC50” value [2] was 35.7 and the IC50 [3] was 32.4 nM. The “Ratio IC50” value [4] was greater than 222, the IC95 [5] was 102 nM and the “Ratio IC50” value [6] was 4.4. For the same compound, the Ki [7] was 0.7 nM, the IC50 [8] was greater than 1000 nM and the IC50 [9] was greater than 1000 nM. The IC50 [10] was 36.2 nM, the IC50 [11] was greater than 1000 nM and the “Ratio IC50” value [12] was greater than 222. The IC50 [13] was 120 nM, the Ki [14] was 4.2 nM and the “Ratio IC50” value [15] was 29.1. The IC95 [16] was 278 nM, the Ki [17] was 4.6 nM and the “Ratio IC50” value [18] was 73.7. The “Ratio IC50” value [19] was 7.2, the “Ratio IC50” value [20] was 4.9 and the “Ratio IC50” value [21] was greater than 222. The “Ratio IC50” value [22] was greater than 222, the IC50 [23] was 118 nM and the “Ratio IC50” value [24] was 5. For the same compound, the IC50 [25] was 19.7 nM, the “Ratio IC50” value [26] was 20 and the IC50 [27] was 131 nM. For the same compound, the IC50 [28] was 90.2 nM, the “Ratio IC50” value [29] was 26.2 and the IC50 [30] was 21.9 nM. For the same compound, the “Ratio IC50” value [31] was 26.6, the IC95 [32] was 25 nM and the IC50 [33] was greater than 1000 nM. For the same compound, the “Ratio IC50” value [34] was 8, the IC95 [35] was 102 nM and the IC50 [36] was 22.3 nM. It also gave an IC50 [37] of 332 nM and an IC50 [38] of 161 nM.
